Assay results as given in patent publication US20260256799A1, “INHIBITORS FOR TREATING SOLID TUMOURS” (UNIVERSITY OF SOUTHAMPTON, priority 2023, published 2026).

Test system: MC38 cells + TGF-β1-treated murine colon fibroblasts (myoMCF)
Assay: Isograft model MC38 + myoMCF (myoCAF-high tumours)
Type: in vivo, C57/BL6 female mice
Conditions: AZD0156, myoCAF-high MC38 tumours
Protocol: SMA immunohistochemistry (IHC; Sigma Aldrich; A2547) on FFPE tissues was performed as previously: in brief, tissues were fixed in 4% paraformaldehyde and embedded in paraffin. 4 μm sections were de-paraffinized, rehydrated and antigen retrieved for 20 minutes at 97° C. using a predefined program on the Dako PT links. Antigen retrieval was performed using Envision FLEX High pH. Endogenous peroxidase activity was blocked using 3% hydrogen peroxide. Mouse Ig blocking reagent (M.O.M kit vector labs) was applied for 1 hour. Primary antibody incubation (1:100) in M.O.M diluent (vector labs) was for 20 minutes. […] Images were captured using an Olympus CKX41 microscope with Cell B imaging software. % area of staining was calculated using Fiji software (java) by running the ‘color deconvolution’ tool analyzing H DAB. […] The mean was calculated from 2 or 3 mice/experimental group.
Quantification of SMA staining in mouse tumours was carried out using color thresholding and deconvolution in Fiji. […]
CD8 and CD4 IHC was performed on frozen tissue embedded in OCT using [YTS169 (CD8; in house) and RM4-5 (CD4; BD) (FIG. 6c & FIG. 12e). […] CD8 and CD4 T-cells were counted from ten randomly selected fields of view (FoV) from the tumour by a consultant pathologist (GJT). […]

CN(C)CCCOc1ccc(-c2ccc3ncc4c(c3c2)n(C2CCOCC2)c(=O)n4C)cn1 [AZD0156]
CD4 T-cell infiltration (IHC): unaffected
location of CD8 T-cells, tumour periphery to tumour core (IHC): significant relocation
